The structures appear in SMILES notation.

Data set [1] deals with Cloudman S-91 mouse melanoma cells (sub-clone M-3). Description: Annexin V-FITC/propidium iodide apoptosis assay in melanoma cells. Type of data set: cell-based. As to the method:
(§1) Cloudman S-91 mouse melanoma cells (sub-clone M-3, CCL 53.1; American Type Culture Collection, Rockville, Md.) were grown in RMPI medium supplemented with 10% fetal bovine serum (Invitrogen, Inc) and 5% penicillin-streptomycin (Invitrogen, Inc). Mouse breast cancer cells (66Cl-1; American Type Culture Collection, Rockville, Md.) that are estrogen-receptor negative were grown in DMEM medium supplemented with 10% fetal bovine serum (Invitrogen, Inc) and 5% penicillin/streptomycin (Invitrogen, Inc). Human T-cell leukemic lymphocytes (CEM; American Type Culture Collection, Rockville, Md.) were grown in MEM medium supplemented with 7% fetal calf serum. Cultures were passaged twice a week.
Early and late apoptosis was assessed with the Annexin V-FITC Apoptosis Detection Kit from PharMingen (Becton-Dickinson, San Diego, Calif.). Images were obtained at the Center for Cell Analysis and Modeling, University of Connecticut Health Center, Farmington, Conn., with an Axioplan CCD Microscope equipped with a 40×1.3 NA FL objective lens and Photometrics PXL-EEV37 high speed digital cooled CCD camera via Metamorph image acquisition and analysis software (Universal Imaging Corp., Downington, Pa.).
(§2) M3 Cloudman melanoma cells were plated into culture dishes containing RPMI medium. After 24 hour media was changed to control medium (no drug) or to media containing different concentrations of methyl sulfone (1-10% methyl sulfone in RPMI medium). Cells were examined by live cell video microscopy immediately after adding drug and every 24 hours up to 144 hours.
Briefly, melanoma cells (Cloudman M3 cell line) were plated at 10^5 cells/ml in RPMI medium. After 24 hours, medium was replaced with RPMI containing different concentrations (grams/volume) of MMS, MES and EES. After 24 hours, apoptosis was assayed using the Becton-Dickinson Annexin V-FITC/Propidium Iodide Kit and a Nikon fluorescent microscope as described by the manufacturer.

Data set [2] deals with M3 Cloudman melanoma cells. Kind of data set: Live cell video microscopy of melanoma cells (morphology, contact inhibition). In kind it is cell-based, mouse. Particulars: equimolar concentration substituted for 2% methyl sulfone. As for the experimental part: as §1
Cells were plated on 35 mm tissue culture dishes at concentration of 10^5 cells/plate, unless stated otherwise, and incubated at 37° C., 5% CO2. After 24 hours, methyl sulfone (0-10% in medium) was added to appropriate plates and immediately videotaped with a Nikon TE300 inverted microscope equipped with a 10×0.25 NA Plan Achromat objective lens. Control cells (no drug) were videotaped as described above. Time series (10 min) of phase contrast images were acquired at a video rate of 1 frame/5 s with a Watec-902B CCD video camera (Watec Corp., Japan) via the stream acquisition option of Metamorph image acquisition and analysis software (Universal Imaging Corp., Downington, Pa.). During recordings, cells were kept at 37° C. with 10 mM Hepes, pH 7.4. Time series of cells +/−2% methyl sulfone were obtained every 24-48 hours for up to 6 weeks.
as §2
The possibility that the data generated from treating cells with methyl sulfone was a nonspecific effect due to changes in extracellular osmolarity was considered. To test this possibility an equimolar concentration of urea was substituted for 2% methyl sulfone; urea has a chemical structure and dipolar moment that is similar to methyl sulfone. […] We next replaced 2% methyl sulfone with an equimolar concentration of dimethyl sulfoxide (DMSO).

The subject of data set [3] is microtubules in melanoma cells. Kind of data set: Immunofluorescence of microtubules, incl. vinblastine stability test. Particulars: 10^−7 M vinblastine, no methyl sulfone. In kind it is cell-based, mouse. As to the method:
Cells were plated in 6-100 mm tissue culture plates, each containing 1 polylysine-coated 10-well slide, or plated onto polylysine-coated coverslips. Once cells were approximately 50% confluent, 2% methyl sulfone was added to cells for 10, 30, 60, 90, and 120 minutes. At each time point cells were placed in microtubule stabilizing buffer ( ) for 10 minutes followed by incubation in −20° C. methanol for 5 minutes. Cells were washed twice in 0.1% Triton X-100 in PBS at room temperature, then incubated with mouse monoclonal anti-alpha-tubulin antibody (Santa Cruz Biotech, Calif.; diluted 1/200 in 1% BSA/PBS) for 1.5 hours. Cells were washed 5 times in 0.1% Triton X-100/PBS, 3 minutes each. Cells were incubated with secondary antibody (Alexa Fluor 568 rabbit anti-mouse antibody; diluted 1/100 in 1%/PBS) for 30 minutes in the dark. Cells were washed five times in 0.1% Triton X-100/PBS, three minutes each. Cells were washed two times in PBS at 2 minute intervals and incubated with DAPI (1 μg/ml in PBS) for 5 minutes at room temperature and in the dark. Cells were washed in PBS for one minute. SlowFade was added to glass slides, coverslips were placed cell side down and sealed with nail polish. Microtubules were viewed at the Center for Cell Analysis and Modeling, University of Connecticut Health Center, Farmington, Conn., with an Axioplan CCD Microscope equipped with a 40×1.3 NA FL objective lens and Photometrics PXL-EEV37 high speed digital cooled CCD camera via Metamorph image acquisition and analysis software (Universal Imaging Corp., Downington, Pa.).
One assay to test stability of microtubules is to give cells increasing concentrations of a microtubule-disassembly drug and use immunofluorescence microscopy to assess microtubule lengths (Caron et al). A higher concentration of drug will be required to disassemble the more stabilized microtubules. We used different concentrations of the anti-microtubule drug, vinblastine, to assess microtubule stability in control cells and cells incubated with 2% methyl sulfone.

The test system of data set [4] is CEM cells, leukemic T-cell lymphocytes. Kind of data set: Apoptosis of leukemic lymphocytes, FITC-annexinV/propidium iodide microscopy. Particulars: 10^−7 M VNB, 20 hours. Type of data set: cell-based, human. As to the method: as §1
CEM cells, leukemic T-cell lymphocytes obtained from a child with acute lymphocytic leukemia, were maintained in Petri dishes in MEM (minimal essential medium) with 7% fetal calf serum in a 5% CO2 incubator at 37° C. For experiments, methyl sulfone was added to the medium at concentrations from 0-6.0%. In control cells, no methyl sulfone was added. Cells (2×10^6 per ml) were incubated for 20 hrs in the presence or absence of methyl sulfone, and then assayed for apoptosis using FITC-annexinV/propidium iodide microscopy. Methyl sulfone was also compared to the anti-microtubule drug, vinblastine. Vinblastine (VNB) and its derivative, vincristine, are standard treatments for acute lymphocytic leukemia, as well as other cancers. We used the concentration of VNB that is found in the blood of subjects being treated with this drug (10^−7 M) (6,7).

`CCS(=O)(=O)CC` [EES, ethyl ethyl sulfone, reference compound]: the “window of concentrations between killing cancer cells and harming normal cells” value in data set [1] is on record as “narrow differential”.

For `C[S+](C)[O-]` [DMSO, dimethyl sulfoxide, reference compound], the “effect on melanoma cells of osmolarity control substance” value in data set [2] was “had no effect”.

Consider `CC[C@]1(O)C[C@@H]2CN(CCc3c([nH]c4ccccc34)[C@@](C(=O)OC)(c3cc4c(cc3OC)N(C)[C@H]3[C@@](O)(C(=O)OC)[C@H](OC(C)=O)[C@]5(CC)C=CCN6CC[C@]43[C@@H]65)C2)C1` [vinblastine, reference compound], for which the “microtubules in control cells” value in data set [3] is on record as “largely gone”. For the same compound, in data set [4], the apoptotic leukemic cells is 48%.

Regarding `CCS(C)(=O)=O` [MES, methyl ethyl sulfone, reference compound], the “window of concentrations between killing cancer cells and harming normal cells” value in data set [1] is reported as “narrow differential”.

Turning to `NC(N)=O` [urea, reference compound], the “effect on melanoma cells of osmolarity control substance” value in data set [2] is “induced necrotic death”.

Source of the values: patent US10363229B2, “Methods and compositions for the treatment of cancer” (priority 2009, dated 2019).
